Tested on: HuCCT1 cell xenograft
Assay: Xenograft of NIK shRNA-introduced HuCCT1 cells in NOG mouse
Format: in vivo
Details: HuCCT1 cells with shRNA introduced by lentivirus
Procedure: A histopathological slide was deparaffinized with xylene and ethanol. HE staining was performed with hematoxylin and eosin. In immunostaining, antigen activation was performed by heating in Target Retrieval Solution (Dako, USA), followed by blocking with bovine serum albumin and a reaction through use of a primary antibody at 4° C. overnight. A frozen section was dried at room temperature, and was blocked with BSA (Nacalai Tesque, Inc., Japan), followed by a reaction through use of a primary antibody in VECTASTAIN ABC Rabbit IgG Kit (Vector Laboratories, Inc., USA). DAB Substrate Kit (Vector Laboratories, Inc., USA) was used in a staining reaction. […] The number of Ki67-positive cells in a tumor was counted with ImageJ (Fiji). The immunostaining score of TRAF3 or NIK was calculated by multiplying a staining intensity (of from 0 to 3) by a stained area (%). Human ICC patients were grouped into two groups on the basis of the median immunostaining score of TRAF3 or NIK, and were evaluated for their disease-free survival (DFS) or overall survival (OS). […]
Further, the HuCCT1 cells were infected with negative control shRNA or NIK shRNA by using a lentivirus, and the infected cells were selected with puromycin. […] The measurement of the diameters of the tumors of the mice was started 3 weeks after the transplantation, and their tumor volumes were measured by the same method as that described above. […]

Substance: NIK shRNA: shRNA against NIK, SEQ ID NO: 1, introduced into HuCCT1 cells by a lentivirus (CCGGCUCAGGACUCACGUAGCAUUACUCGAGUAAUGCUACGUGAGUCCUGAGUUUUU)
- number of Ki67-positive cells in tumors versus negative control shRNA-introduced tumors (FIG. 24B): significantly lower
- growth of xenografts derived from the HuCCT1 cells (tumor size) (measured from day 21 after transplantation, FIG. 24A): significantly suppressed
